Measured values: US20210122730A1, “GLUCOCORTICOID RECEPTOR MODULATORS” (ORIC Pharmaceuticals, Inc., priority 2017, published 2021)

Each compound was assayed against T1, GR (Homo sapiens, UniProt P04150) (assay: In Vitro GR Luciferase Reporter Assay (antagonist mode, CHO-K1-GR-MMTV-Luc reporter cells)). Settings: antagonist mode, 10 nM Dexamethasone.
T1 construct: expressed in transfected cells; host or cells: CHO-K1
T1 sequence (P04150 1-777): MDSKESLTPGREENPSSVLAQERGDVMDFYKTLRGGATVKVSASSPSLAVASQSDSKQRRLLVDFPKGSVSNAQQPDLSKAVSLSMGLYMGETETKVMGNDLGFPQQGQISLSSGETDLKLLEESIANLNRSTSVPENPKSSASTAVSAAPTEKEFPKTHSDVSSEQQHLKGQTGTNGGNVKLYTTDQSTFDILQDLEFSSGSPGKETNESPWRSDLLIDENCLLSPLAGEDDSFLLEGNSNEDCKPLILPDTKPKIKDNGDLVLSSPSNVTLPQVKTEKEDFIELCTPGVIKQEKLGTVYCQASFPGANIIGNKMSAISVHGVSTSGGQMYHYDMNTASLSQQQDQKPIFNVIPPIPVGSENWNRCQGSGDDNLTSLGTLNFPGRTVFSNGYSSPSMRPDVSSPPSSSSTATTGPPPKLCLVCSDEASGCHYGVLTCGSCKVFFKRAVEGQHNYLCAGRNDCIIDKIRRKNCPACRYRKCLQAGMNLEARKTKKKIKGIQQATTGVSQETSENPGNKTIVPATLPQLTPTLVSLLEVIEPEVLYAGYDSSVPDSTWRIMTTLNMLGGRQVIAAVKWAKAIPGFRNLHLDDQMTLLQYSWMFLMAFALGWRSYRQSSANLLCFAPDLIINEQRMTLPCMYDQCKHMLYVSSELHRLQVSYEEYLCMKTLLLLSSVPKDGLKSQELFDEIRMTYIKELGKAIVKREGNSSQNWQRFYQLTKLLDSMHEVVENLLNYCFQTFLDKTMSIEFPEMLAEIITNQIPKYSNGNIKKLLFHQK
Type: cell-based
How it was run: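 CHO-K1-GR-MMTV-Luc cells in phenol red-free DMEM with 10% CSS, stimulated with 10 nM dexamethasone (final) and treated with 8-point 1:5 compound dilutions for about 18-24 h at 37° C. Luciferase measured by OneGlo luminescence; IC50 derived for inhibition of GR activity.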

| SMILES | IC50 [nM] |
| --- | --- |
| Cn1cc(S(=O)(=O)CC2CCC3=Cc4c(cnn4-c4ccc(F)cc4)C[C@]3(C(=O)c3ncc(C(F)(F)F)s3)C2)cn1 (stereo partly drawn) [Example 375, ((4aR)-1-(4-fluorophenyl)-6-(((1-methyl-1H-pyrazol-4-yl)sulfonyl)methyl)-1,4,5,6,7,8-hexahydro-4aH-benzo[f]indazol-4a-yl)(5-(trifluoromethyl)thiazol-2-yl)methanone] | ≤ 100 |
| CCN([C@H]1CCC2=Cc3c(cnn3-c3ccc(F)cc3)C[C@]2(C(=O)c2ncc(C(F)(F)F)s2)C1)S(=O)(=O)c1cncn1C [Example 376, N-ethyl-N-((4aS,6S)-1-(4-fluorophenyl)-4a-(5-(trifluoromethyl)thiazole-2-carbonyl)-4,4a,5,6,7,8-hexahydro-1H-benzo[f]indazol-6-yl)-1-methyl-1H-imidazole-5-sulfonamide] | ≤ 100 |
| Cn1cnc(S(=O)(=O)N(CC(F)(F)F)[C@H]2CCC3=Cc4c(cnn4-c4ccc(F)cc4)C[C@]3(C(=O)c3cc(C(F)(F)F)ccn3)C2)n1 [Example 378, N-((4aS,6S)-1-(4-fluorophenyl)-4a-(4-(trifluoromethyl)picolinoyl)-4,4a,5,6,7,8-hexahydro-1H-benzo[f]indazol-6-yl)-1-methyl-N-(2,2,2-trifluoroethyl)-1H-1,2,4-triazole-3-sulfonamide] | ≤ 100 |
| Cn1cnc(S(=O)(=O)CC2CCC3=Cc4c(cnn4-c4ccc(F)cc4)C[C@]3(C(=O)c3ncc(C(F)(F)F)s3)C2)n1 (stereo partly drawn) [Example 379, ((4aR)-1-(4-fluorophenyl)-6-(((1-methyl-1H-1,2,4-triazol-3-yl)sulfonyl)methyl)-1,4,5,6,7,8-hexahydro-4aH-benzo[f]indazol-4a-yl)(5-(trifluoromethyl)thiazol-2-yl)methanone] | ≤ 100 |
| Cn1ccc(S(=O)(=O)N(CCF)[C@H]2CCC3=Cc4c(cnn4-c4ccc(F)cc4)C[C@]3(C(=O)c3cc(C(F)(F)F)ccn3)C2)n1 [Example 380, N-(2-fluoroethyl)-N-((4aS,6S)-1-(4-fluorophenyl)-4a-(4-(trifluoromethyl)picolinoyl)-4,4a,5,6,7,8-hexahydro-1H-benzo[f]indazol-6-yl)-1-methyl-1H-pyrazole-3-sulfonamide] | ≤ 100 |
| CO[C@]1(C)C[C@H](N([C@H]2CCC3=Cc4c(cnn4-c4ccc(F)cc4)C[C@]3(C(=O)c3cc(Cl)ccn3)C2)S(=O)(=O)c2ccn(C)n2)C1 [Example 381, N-((4aS,6S)-4a-(4-chloropicolinoyl)-1-(4-fluorophenyl)-4,4a,5,6,7,8-hexahydro-1H-benzo[f]indazol-6-yl)-N-((1s,3R)-3-methoxy-3-methylcyclobutyl)-1-methyl-1H-pyrazole-3-sulfonamide] | ≤ 100 |
| Cn1cnc(S(=O)(=O)N(CCF)[C@H]2CCC3=Cc4c(cnn4-c4ccc(F)cc4)C[C@]3(C(=O)c3ncc(C(F)(F)F)s3)C2)n1 [Example 382, N-(2-fluoroethyl)-N-((4aS,6S)-1-(4-fluorophenyl)-4a-(5-(trifluoromethyl)thiazole-2-carbonyl)-4,4a,5,6,7,8-hexahydro-1H-benzo[f]indazol-6-yl)-1-methyl-1H-1,2,4-triazole-3-sulfonamide] | ≤ 100 |
| Cn1cnc(S(=O)(=O)N(CC(F)F)[C@H]2CCC3=Cc4c(cnn4-c4ccc(F)cc4)C[C@]3(C(=O)c3ncc(C(F)(F)F)s3)C2)c1 [Example 383, N-(2,2-difluoroethyl)-N-((4aS,6S)-1-(4-fluorophenyl)-4a-(5-(trifluoromethyl)thiazole-2-carbonyl)-4,4a,5,6,7,8-hexahydro-1H-benzo[f]indazol-6-yl)-1-methyl-1H-imidazole-4-sulfonamide] | ≤ 100 |
| CO[C@]1(C)C[C@H](N([C@H]2CCC3=Cc4c(cnn4-c4ccc(F)cc4)C[C@]3(C(=O)c3cc(C(F)(F)F)ccn3)C2)S(=O)(=O)c2ccn(C)n2)C1 [Example 384, N-((4aS,6S)-1-(4-fluorophenyl)-4a-(4-(trifluoromethyl)picolinoyl)-4,4a,5,6,7,8-hexahydro-1H-benzo[f]indazol-6-yl)-N-((1s,3R)-3-methoxy-3-methylcyclobutyl)-1-methyl-1H-pyrazole-3-sulfonamide] | ≤ 100 |
